Test results reported in patent US4062959A, “N-methyl-imidazole derivatives for treating mycotic infections” (Bayer Aktiengesellschaft, priority 1970, dated 1977).
≈ marks a conversion by molar mass, not a printed value.

How the values were obtained:
Test in all cases: Anti-mycotic action in vitro (MIC, serial dilution test)
Type in all cases: cell-based
Microsporon felineum = conditions: 28° C, 24 to 96 hours; Sabouraud's test medium (Dermatophytes); dilution series 100-40-20-10-4-1; read-out: Minimal inhibitory concentration (MIC), Microsporon felineum
Procedure: (§1) The Table summarises the anti-mycotic actions in vitro of several preparations towards several species of fungi:
(§2) The MIC determination was carried out in a serial dilution test, in the dilution series 100-40-20-10-4-1 γ/ml of substrate. The following were used as nutrient substrates:
(§3) a. for Dermatophytes: Sabouraud's test medium
(§4) The incubation temperature was 28° C, and the incubation time was 24 to 96 hours.

[1] = test system: Trichophyton mentagrophytes; conditions: 28° C, 24 to 96 hours, Sabouraud's test medium (Dermatophytes), dilution series 100-40-20-10-4-1, read-out: Minimal inhibitory concentration (MIC), Trichophyton mentagrophytes
Procedure: as §1, §2, §3, §4

Aspergillus niger = conditions: 28° C, 24 to 96 hours, dilution series 100-40-20-10-4-1, read-out: Minimal inhibitory concentration (MIC), Aspergillus niger
Procedure: as §1, §2, §4

Penicillium commune = conditions: 28° C, 24 to 96 hours, dilution series 100-40-20-10-4-1, read-out: Minimal inhibitory concentration (MIC), Penicillium commune
Procedure: as §1, §2, §4

Candida albicans = conditions: 28° C, 24 to 96 hours, meat water-glucose-bouillon (yeasts), dilution series 100-40-20-10-4-1, read-out: Minimal inhibitory concentration (MIC), Candida albicans
Procedure: as §1, §2
b. for yeasts: meat water -- glucose -- bouillon.
as §4

c1ccc(C(c2ccccc2)(c2cncnc2)n2ccnc2)cc1 [Example 1, Diphenyl-pyrimid-5-yl-imidazol-1-yl-methane]
MIC (Microsporon felineum): 40 µg/mL (≈ 128 µM)
MIC [1]: 4 µg/mL (≈ 12.8 µM)
MIC (Aspergillus niger): 10 µg/mL (≈ 32 µM)
MIC (Penicillium commune): 100 µg/mL (≈ 320 µM)
MIC (Candida albicans): 40 µg/mL (≈ 128 µM)

c1ccc(C(c2ccccc2)(c2cnccn2)n2ccnc2)cc1 [Example 2, Diphenyl-pyrazyl-imidazol-1-yl-methane]
MIC (Microsporon felineum): 10 µg/mL (≈ 32 µM)
MIC [1]: 4 µg/mL (≈ 12.8 µM)
MIC (Aspergillus niger): 10 µg/mL (≈ 32 µM)
MIC (Penicillium commune): 40 µg/mL (≈ 128 µM)
MIC (Candida albicans): 40 µg/mL (≈ 128 µM)

Fc1ccc(C(c2ccccc2)(c2cnccn2)n2ccnc2)cc1 (stereo not drawn) [Example 3, 4-Fluorophenyl-phenyl-pyrazyl-imidazol-1-yl-methane]
MIC (Microsporon felineum): 4 µg/mL (≈ 12.1 µM)
MIC [1]: < 1 µg/mL
MIC (Aspergillus niger): 4 µg/mL (≈ 12.1 µM)
MIC (Penicillium commune): 4 µg/mL (≈ 12.1 µM)
MIC (Candida albicans): 4 µg/mL (≈ 12.1 µM)
